Test results taken from patent publication US20130281409A1, “Myelin Sheath Fatty Acids that Resolve Neuroinflammation” (priority 2012, published 2013).
“Also recorded” adds a separate entry of the source.

Experiments:
[1] = test system: splenocytes from PLP139-151-immunized SJL mice; experiment: PLP139-151-induced proliferation of splenocytes of PLP139-151-immunized mice; format: cell-based, mouse; conditions: 30 μg/ml lipid, 48 hours
Description: PLP-stimulated cells from PLP139-151-immunized mice administered PGPC prophylactically: SJL/J mice were co-injected with PGPC and PLP139-151 in CFA and sacrificed 48 days later. Lymph node cells and splenocytes were then harvested and re-stimulated in vitro (2.5×10^6 cells/ml) with 10 μg/ml of PLP139-151 or with media alone. PLP-stimulated cells from untreated PLP139-151-immunized mice: SJL/J mice were immunized with PLP139-151 in CFA and sacrificed 10 days later. Splenocytes were then harvested and re-stimulated in vitro (at 5×10^5 cells/ml) with 10 μg/ml of PLP139-151 in the presence of 30 μg/ml of POPS, PGPC, azPC ester, or azPC.

[2] = test system: splenocytes from PLP139-151-immunized SJL mice; experiment: PLP139-151-induced cytokine production by splenocytes of PLP139-151-immunized mice; format: cell-based, mouse; conditions: 30 μg/ml lipid, 48 hours
Description: PLP-stimulated cells from PLP139-151-immunized mice administered PGPC prophylactically: SJL/J mice were co-injected with PGPC and PLP139-151 in CFA and sacrificed 48 days later. Lymph node cells and splenocytes were then harvested and re-stimulated in vitro (2.5×10^6 cells/ml) with 10 μg/ml of PLP139-151 or with media alone. PLP-stimulated cells from untreated PLP139-151-immunized mice: SJL/J mice were immunized with PLP139-151 in CFA and sacrificed 10 days later. Splenocytes were then harvested and re-stimulated in vitro (at 5×10^5 cells/ml) with 10 μg/ml of PLP139-151 in the presence of 30 μg/ml of POPS, PGPC, azPC ester, or azPC. Cytokine production by cells from the lymph nodes and spleens of PGPC co-immunized mice was measured after 66 hours of stimulation by using the BD OptEIA™ Mouse IFN-γ ELISA kit (BD Biosciences). Cytokine assays for the anti-CD3/anti-CD28 antibody-stimulated T cells and PLP139-151-stimulated splenocytes were performed on culture supernatants after 48 hours of stimulation using the BD OptEIA™ Mouse IL-6, IFN-γ, and TNF alpha ELISA kits (BD Biosciences) and the Mouse IL-17 DuoSet ELISA Development kit (R&D Systems).

[3] = test system: CD3+ T cells; experiment: Proliferation of anti-CD3/anti-CD28-stimulated purified T cells; format: cell-based, mouse; conditions: anti-CD3 or anti-CD3 and anti-CD28, 30 μg/ml lipid, 48 hours
Description: Splenocytes were harvested from mice transgenic for the MBPAc1-11-specific T-cell receptor and stimulated with 2 μg/ml of MBPAc1-11 in the presence of 30 μg/ml of lipid. Lymph nodes and spleens were also harvested from naive C57BL/6 mice, and CD3^+ T-cell enrichment columns (R&D systems) were used to isolate CD3^+ T cells. […] Cytokine assays were performed on culture supernatants after 24 (IL-12p40) or 48 hours (IFN-γ, IL-6, and TNF) of culture by using the BD OptEIA™ Mouse ELISA kits (BD Biosciences). Cd1d^−/− T cells: We harvested splenocytes from Cd1d^−/− mice and their wild-type littermates and used CD3^+ T-cell enrichment columns (R&D systems) to isolate T cells. […] Anti-CD3/anti-CD28-stimulated purified T cells: We harvested lymph nodes and spleens from naive C57BL/6 mice and used CD3^+ T-cell enrichment columns (R&D systems) to isolate CD3^+ T cells.

[4] = test system: EAE in PLP139-151-immunized SJL/J mice; experiment: EAE, lipid or palmitic-acid treatment of established disease; format: in vivo, mouse
Description: Animal experiments were approved by, and performed in compliance with, the National Institute of Health guidelines of the Institutional Animal Care and Use Committee at Stanford University. For induction of EAE, 8- to 12-week-old female SJL/J mice (Jackson Laboratory) were immunized subcutaneously with 100 μg of PLP139-151 emulsified in CFA (Difco Laboratories). Lipid and palmitic-acid treatment: Administration of lipid, palmitic acid, or vehicle was initiated once the PLP139-151-immunized mice developed paralysis (representing clinical EAE) and repeated every other day, for a total of ten separate injections. 100 μg of POPS, PGPC, azPC ester, azPC, palmitic acid, or vehicle (0.05% Tween-20 in PBS) was administered in 0.2 ml intravenously in the tail. EAE treatment with lipid: 100 μg of PGPC or sphingomyelin or vehicle ([…] Tween-20 in PBS) was administered in 0.2 ml intravenously in the tail. Treatment with lipid or vehicle was initiated once the PLP139-151-immunized mice developed paralysis (representing clinical EAE) and repeated 3, 6, 12, and 18 days later, for a total of five separate injections.

[5] = test system: RAW 264.7 cells; experiment: Apoptosis of LPS-stimulated RAW 264.7 macrophage cells; format: cell-based, mouse; conditions: 30 μg/ml lipid, 100 ng/ml LPS, 48 hours
Description: LPS-stimulated RAW 264.7 mouse macrophage cells: 1×10^5 cells/ml of RAW 264.7 cells were stimulated with 100 ng/ml of lipopolysaccharide (LPS) in the presence of 30 μg/ml of POPS, PGPC, azPC ester, or azPC. Cells were stained according to standard protocols, run on a FACScan flow cytometer (BD Biosciences), and analysed with CellQuest software (BD Immunocytometry Systems) or with FlowJo software version 6.3.2 (Tree Star, Inc.).

[6] = test system: MBPAc1-11-TCR transgenic splenocytes; experiment: MBPAc1-11-specific T-cell proliferation (3H-thymidine incorporation); format: cell-based, mouse; conditions: 30 μg/ml lipid, 2 μg/ml MBPAc1-11
Description: Splenocytes were harvested from mice transgenic for the MBPAc1-11-specific T-cell receptor and stimulated with 2 μg/ml of MBPAc1-11 in the presence of 30 μg/ml of lipid. Lymph nodes and spleens were also harvested from naive C57BL/6 mice, and CD3^+ T-cell enrichment columns (R&D systems) were used to isolate CD3^+ T cells. The purified CD3^+ T cells were stimulated with 5 μg/ml of plate-bound anti-CD3 antibodies and anti-CD28 antibodies in the presence of 30 μg/ml of POPS, PGPC, azPC ester, brain sulfatides, or azPC, 0.25 mM palmitic acid, or 100% ethanol (as the vehicle control). For assessment of proliferation, 1 μCi of ^3H-thymidine was added to each well for the final 18-24 hours of culture, and incorporation of radioactivity was measured by using a Betaplate scintillation counter. Cytokine assays were performed on culture supernatants after 24 (IL-12p40) or 48 hours (IFN-γ, IL-6, and TNF) of culture by using the BD OptEIA™ Mouse ELISA kits (BD Biosciences).
5×10^6 cells/ml were stimulated in vitro with 2 μg/ml of MBPAc1-11 in the presence of various concentrations of palmitic acid (Sigma), other lipids, or 100% Ethanol (vehicle alone).
For assessment of proliferation, 1 μCi of ^3H-thymidine was added to each well for the final 18 hours of culture, and incorporation of radioactivity was quantified using a Betaplate scintillation counter.

[7] = 100 μg i.v. once paralysis developed, every other day, ten injections

**Q.** Which results are given for CCCCCCCCCCCCCCCC(=O)OC[C@H](COP(=O)([O-])OCC[N+](C)(C)C)OC(=O)CCCC(=O)O [PGPC, 1-Palmitoyl-2-Glutaroyl-sn-Glycero-3-Phosphocholine]?
**A.** PLP139-151-induced proliferation of splenocytes [1]: suppress; PLP139-151-induced cytokine production (IL-17, IL-6, IFN-γ, TNF) [2]: suppress; T-cell proliferation, wild-type and Cd1d−/− T cells [3]: suppress T-cell proliferation independently of CD1d; EAE severity, established disease ([4]; 100 μg i.v. from disease onset (10 days after immunization), five injections): attenuated EAE that was already established; EAE severity, established disease [4, 7]: ameliorate established EAE; apoptosis of LPS-activated RAW 264.7 cells [5]: induce apoptosis; T-cell proliferation in response to MBPAc1-11 [6]: reduced T-cell proliferation

**Q.** For CCCCCCCC/C=C\CCCCCCCC(=O)O[C@H](COC(=O)CCCCCCCCCCCCCCC)COP(=O)(O)OC[C@H](N)C(=O)O [POPS, 1-Palmitoyl-2-Oleoyl-sn-Glycero-3-[Phospho-L-Serine]], which “PLP139-151-induced proliferation of splenocytes” value [1] is on record?
**A.** The value was “suppress”.

**Q.** And the “PLP139-151-induced cytokine production (IL-17, IL-6, IFN-γ, TNF)” value [2]?
**A.** Its value is “suppress”.

**Q.** And the “T-cell proliferation, wild-type and Cd1d−/− T cells” value [3]?
**A.** Its value is “suppress T-cell proliferation independently of CD1d”.

**Q.** What about the “EAE severity, established disease” value [4, 7] of the same molecule?
**A.** The value was “ameliorate established EAE”.

**Q.** What about the “apoptosis of LPS-activated RAW 264.7 cells” value [5] of the same molecule?
**A.** The value was “induce apoptosis”.

**Q.** And the “T-cell proliferation in response to MBPAc1-11” value [6]?
**A.** Its value is “reduced T-cell proliferation”.

**Q.** What does the source list for CCCCCCCCCCCCCCCC(=O)OC[C@H](COP(=O)([O-])OCC[N+](C)(C)C)OC(=O)CCCCCCCC(=O)O [azPC, 1-Palmitoyl-2-Azelaoyl-sn-Glycero-3-Phosphocholine]?
**A.** PLP139-151-induced proliferation of splenocytes [1]: suppress; PLP139-151-induced cytokine production (IL-17, IL-6, IFN-γ, TNF) [2]: suppress; T-cell proliferation, wild-type and Cd1d−/− T cells [3]: suppress T-cell proliferation independently of CD1d; EAE severity, established disease [4, 7]: ameliorate established EAE; apoptosis of LPS-activated RAW 264.7 cells [5]: increased apoptosis; also recorded: induce apoptosis; T-cell proliferation in response to MBPAc1-11 [6]: reduced T-cell proliferation
